Measured values: patent publication US7179604B2, “Methods of use of DNA encoding a human histamine receptor of the H3 subtype” (Ortho-McNeil Pharmaceutical, Inc., priority 1998, dated 2007)

Target: T1, human histamine H3 receptor (Homo sapiens, UniProt Q9Y5N1, E19D)
T1 construct: achieved by transfection of full-length human histamine H3 receptor cDNA into a mammalian host cell; expressed in transfected cells; membrane preparation
Test: Saturation binding of [3H]-N-alpha-methylhistamine to membranes of pH3R expressing L cells
Conditions: recombinant receptor in L cells, FIG. 7, radioligand 0.01 nM-25 nM, room temperature 45 minutes
Experimental: Binding Assay on Recombinant Human Histamine H3 Receptor L cells that inhibited forskolin-stimulated cAMP accumulation as described above were grown in 150 cm2 tissue culture dishes. Cells were washed with saline solution, scraped with a cell scraper and collected by centrifugation (1000 rpm, 5 min). L cells expressing human histamine H3 receptor bound ^3H—N-alpha-methylhistamine with high affinity (FIG. 7). Cell membranes were prepared by homogenization of the cell pellet in 20 mM TRIS-HCl with a polytron tissue homogenizer for 10 seconds at high speed. Homogenate was centrifuged at 1000 rpm for 5 minutes at 4° C. The supernatant was then collected and centrifuged at 20,000×g for 25 minutes at 4° C. The final pellet is resuspended in 50 mM Tris-HCl. Cell membranes were incubated with ^3H—N-alpha-methylhistamine (0.01 nM–25 nM) in the presence or absence of excess histamine (10000 nM). Incubation was done at room temperature for 45 minutes. Membranes were harvested by rapid filtration over Whatman GF/C filters and washed 4 times with ice cold 50 mM TRIS HCl. Filters were then dried, mixed with scintillant and counted for radioactivity. […]

T1 sequence (Q9Y5N1 whole entry E19D): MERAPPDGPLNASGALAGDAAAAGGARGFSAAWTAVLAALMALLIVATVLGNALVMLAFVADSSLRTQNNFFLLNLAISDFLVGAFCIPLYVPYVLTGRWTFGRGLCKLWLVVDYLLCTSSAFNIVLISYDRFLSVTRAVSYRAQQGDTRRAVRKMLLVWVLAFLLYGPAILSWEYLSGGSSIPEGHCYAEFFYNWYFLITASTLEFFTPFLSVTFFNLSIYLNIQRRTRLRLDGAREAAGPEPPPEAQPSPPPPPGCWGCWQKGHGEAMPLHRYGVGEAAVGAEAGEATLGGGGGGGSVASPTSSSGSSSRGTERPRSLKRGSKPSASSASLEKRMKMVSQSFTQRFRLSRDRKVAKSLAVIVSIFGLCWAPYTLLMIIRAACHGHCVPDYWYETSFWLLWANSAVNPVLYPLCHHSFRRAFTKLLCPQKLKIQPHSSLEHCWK

[3H]CNCCc1cnc[nH]1 [^3H—N-alpha-methylhistamine]
affinity of binding to L cells expressing human histamine H3 receptor: high affinity
